Experimental data: PubChem BioAssay (NCI)
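Assay format: 96-well plates, 48-hour exposure. GI50 is the concentration that inhibits growth by half. TGI marks complete inhibition of growth.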

What was measured:
Assay in all cases: growth of human tumour cells (NCI), 48 h
[1] = system: SN12C renal
[2] = system: HCT-15 colon
[3] = system: ACHN renal
[4] = system: HOP-92 NSCLC
[5] = system: 786-0 renal
[6] = system: BT-549 breast
[7] = system: HOP-62 NSCLC
[8] = system: SK-MEL-2 melanoma
[9] = system: SNB-75 CNS
[10] = system: PC-3 prostate

Structure (SMILES)	GI50 [1] [µM]	TGI [1] [µM]	GI50 [2] [µM]	TGI [2] [µM]	GI50 [3] [µM]	TGI [3] [µM]	GI50 [4] [µM]	TGI [4] [µM]	GI50 [5] [µM]	TGI [5] [µM]	GI50 [6] [µM]	TGI [6] [µM]	TGI [7] [µM]	GI50 [8] [µM]	TGI [8] [µM]	GI50 [9] [µM]	TGI [9] [µM]	GI50 [10] [µM]	TGI [10] [µM]	GI50 [7] [µM]
CCOc1cc(/C=N\NC(=O)N/N=C/c2ccc(O)c(OCC)c2)ccc1O	7	> 100	3.1	> 100	7.99	> 100	87.5	> 100	7.68	> 100	24.5	> 100	> 100	1.55	> 100	2.76	> 100	3.51	> 100	
CC(C)N(C[C@H]1O[C@@H](n2cnc3c(N)ncnc32)[C@H](O)[C@@H]1O)C1CC(CCc2nc3ccc(C(C)(C)C)cc3[nH]2)C1 (some centres undefined)	> 100	> 100	> 100	> 100	> 100	> 100	31.4	> 100	> 100	> 100	> 60.5	> 100	> 100	> 69	> 100	24.9	> 100	97.9	> 100	> 100
CS(=O)(=O)c1nc(Cl)c(Cl)c(C#N)c1Cl		5.9		3.5		5.26		3.73		4.11		3.37	35.6		14.5		26.9		11.6	
N#CC[C@H](C1CCCC1)n1cc(-c2ncnc3[nH]ccc23)cn1	22.1	> 100	26.6	> 100	23.3	> 100	6.81	> 100	12.9	> 91.3	12.8	36	> 100	30.5	78.2	3.3	> 61.8	35.2	> 100	17.2
O=C(CC1(O)C(=O)Nc2c(Cl)ccc(Cl)c21)c1ccc(C2CC2)cc1 (centres undefined)	2.66	20.4	0.185	14.3	2.19	20.2	0.769	14.8	1.78	16.9	0.984	11	19.4	2.06	8.83	1.99	9.33	1.38	16.6	1.28
CCCCCc1c(C)[nH]c(/C=c2\[nH]/c(=C3/C=c4ccccc4=N3)cc2OC)c1C	0.0926	1.88	0.0337	1.31	0.122	1.29	0.0236	0.203	0.049	0.242	0.08	2.14	0.438	0.0394	0.193	0.107	0.583	0.0544	> 100	0.0767
Brc1ccc(Br)nn1	1.62	3.53	1.74	3.66	1.8	3.26	1.8	3.6	2.11	4.75	1.52	2.96	10.1	2.91	20.4	1.97	8.41	4.41	22	4.02
Oc1[nH]c2ccc(Cl)cc2c1/C=c1/ccc2c(c1)N=C(c1cc(F)cc(F)c1)N=2	5.41	> 100	3.96	> 100	7.42	> 100	2.41	31.1	3.66	> 100	2.09	7.59	45	3.24	8.52	2.06	7.13	3.44	> 100	3.77
C[C@@H]1CN2[C@H]3[C@@H]1CC[C@]31CCC(=O)O[C@]1(C)[C@@H]1CC[C@H]3CCC=C3[C@@H]12	> 70	> 70	> 70	> 70	> 70	> 70	38.4	> 70	> 70	> 70	> 70	> 70	> 70	> 70	> 70	35.3	> 70	> 70	> 70	> 70
CCNCCNc1cc(-c2cccc(C(F)(F)F)c2)c(C#N)c2nc3ccccc3n12	1.74	3.37	0.708	2.12	1.32	2.9	1.69	3.54	1.02	2.33	2.06	3.75	3.8	1.87	3.59	1.5	2.92	1.83	3.54	2.13
Cc1cccnc1CNC1CC(NCc2ncccc2C)CC(NCc2ncccc2C)C1 (centres undefined)	1.61	3.11	4.05	13.3	3.22	11.2	1.1	2.3	2.15	4.55	2.95	7.82	4.52	3.9	> 100	2.21	4.32	2.3	4.52	1.96
C=C1CO[C@@H]2C[C@@H]1CC/C(C)=C/CC/C(C)=C/CC[C@@]2(C)O	20	43.7	19.9	38	18.8	34	15.9	44.9	17.5	32.9	24.6	51.5	32.5	27.4	> 64	25	46.3	15.7	33.6	17.1
CNCCOc1nc2c3cnccc3cc(-c3cc(OC)c(OC)c(OC)c3)c2c2ccncc12	0.0199	0.0872	0.0467	2.19	0.015	0.0598	0.0168	0.1	0.0194	0.175	0.103	0.613	0.166	0.264	0.683	0.0304	0.162	0.0471	1.12	0.0224
COc1cc2c3c(c1O)C1(C=CC(=O)C=C1)CC3N(C)CC2 (centres undefined)		30.2		19		43.4		24		15.6		30.6	25.7		25.9		43.4		31.1	
CC[C@H](C)[C@H](NC(=O)C12CC(NC(C)=O)(C1)C2)C(=O)N(C)[C@H](C[C@@H](OC(C)=O)c1nc(C(=O)N[C@@H](Cc2ccccc2)C[C@H](C)C(=O)OC)cs1)C(C)C	0.937	> 16.7	1.09	> 16.7	1.13	> 16.7	> 11.8	> 16.7	0.395	> 16.7	0.0824	3.41	> 10.4	0.108	> 16.7	0.123	> 16.7	0.194	> 16.7	0.473
